Calls of active or inactive are those of the source.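 The calls were made as follows: active = IC50 for SRC3 coactivator inhibition, the dose giving half inhibition, at or below 10 µM; inactive = IC50 above 10 µM.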
Biological target: Nuclear receptor coactivator 3 (Homo sapiens) (UniProt Q9Y6Q9)
Assay: inhibition of GAL4-SRC3 reporter transcription – cell-based, HEK293, GAL4-SRC3 luciferase, powder samples, late-stage follow-up (AID 651788)
Conditions: luminescence

Chain of Nuclear receptor coactivator 3 (Homo sapiens) (Q9Y6Q9 whole entry, looked up, the tested form may be a part): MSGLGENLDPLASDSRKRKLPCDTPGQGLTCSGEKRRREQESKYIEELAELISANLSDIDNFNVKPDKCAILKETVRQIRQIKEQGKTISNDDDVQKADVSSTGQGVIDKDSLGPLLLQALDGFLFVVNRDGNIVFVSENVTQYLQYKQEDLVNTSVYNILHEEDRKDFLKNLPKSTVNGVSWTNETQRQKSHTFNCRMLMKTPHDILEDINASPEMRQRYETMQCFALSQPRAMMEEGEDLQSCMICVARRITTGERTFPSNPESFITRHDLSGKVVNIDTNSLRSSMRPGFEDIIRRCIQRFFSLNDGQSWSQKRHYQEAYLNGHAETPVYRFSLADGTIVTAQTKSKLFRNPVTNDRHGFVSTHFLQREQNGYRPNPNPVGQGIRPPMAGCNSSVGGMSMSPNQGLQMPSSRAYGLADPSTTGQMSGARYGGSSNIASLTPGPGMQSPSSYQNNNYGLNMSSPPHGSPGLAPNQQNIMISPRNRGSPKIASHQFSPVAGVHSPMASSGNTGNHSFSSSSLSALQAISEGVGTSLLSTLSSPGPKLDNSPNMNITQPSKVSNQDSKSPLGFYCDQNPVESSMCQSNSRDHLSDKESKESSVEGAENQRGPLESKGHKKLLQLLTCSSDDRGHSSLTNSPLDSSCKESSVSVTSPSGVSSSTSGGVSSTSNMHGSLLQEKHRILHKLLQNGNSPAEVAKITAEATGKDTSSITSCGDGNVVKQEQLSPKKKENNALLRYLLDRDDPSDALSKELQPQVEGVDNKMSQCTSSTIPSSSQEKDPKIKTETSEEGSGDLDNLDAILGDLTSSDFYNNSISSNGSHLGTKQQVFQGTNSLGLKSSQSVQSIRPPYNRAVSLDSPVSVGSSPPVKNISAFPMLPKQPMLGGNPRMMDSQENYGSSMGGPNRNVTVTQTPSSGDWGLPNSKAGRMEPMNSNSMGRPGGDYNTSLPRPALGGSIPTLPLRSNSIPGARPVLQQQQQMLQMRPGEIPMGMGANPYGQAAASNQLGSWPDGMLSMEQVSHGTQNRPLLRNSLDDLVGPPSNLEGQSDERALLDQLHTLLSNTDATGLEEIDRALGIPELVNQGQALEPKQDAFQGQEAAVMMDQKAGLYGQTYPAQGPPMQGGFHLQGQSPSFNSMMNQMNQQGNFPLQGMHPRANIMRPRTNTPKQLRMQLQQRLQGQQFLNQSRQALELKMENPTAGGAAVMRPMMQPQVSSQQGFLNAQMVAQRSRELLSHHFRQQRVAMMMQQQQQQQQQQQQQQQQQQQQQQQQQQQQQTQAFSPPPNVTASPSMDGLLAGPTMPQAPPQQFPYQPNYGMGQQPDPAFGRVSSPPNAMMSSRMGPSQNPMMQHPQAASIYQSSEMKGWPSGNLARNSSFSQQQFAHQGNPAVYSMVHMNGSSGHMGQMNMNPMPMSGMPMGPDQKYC

Row | SMILES | IC50
1 | CN1C(=O)C2(C(C#N)=C(N)N(c3cc(Cl)cc(Cl)c3)C3=C2C(=O)CCC3)c2ccccc21 (stereo not drawn) | 5.74 µM
2 | CCCNC(=O)c1nnsc1S(=O)(=O)c1ccc(Cl)cc1 | 3.96 µM
3 | CN1C(=O)C2(C(C#N)=C(N)N(c3cc(Cl)cc(Cl)c3)C3=C2C(=O)CC(C)(C)C3)c2ccccc21 (stereo not drawn) | 4.44 µM

Other lines, results leading:

Row | IC50 | SMILES
4 | 8.32 µM | O=C(COC(=O)c1ccc[nH]c1=O)Nc1ccc(N2CCCCC2)cc1
5 | 4.97 µM | OCCN1CCN(C(=S)c2ccc(-c3ccccc3)cc2)CC1
6 | inactive | Cc1ccc(OCC(=O)c2cc(C)n(-c3ccccc3)c2C)c([N+](=O)[O-])n1
7 | 3.1 µM | O=C(Nc1ccccc1Oc1ccccc1)c1cc([N+](=O)[O-])ccc1Cl
8 | > 12 µM (inactive) | CC(C)(C)c1ccc(-c2noc(CCC(=O)Nc3cccnc3)n2)cc1

Reference: PubChem BioAssay AID651788 (The Scripps Research Institute Molecular Screening Center, 2012)
